7 compounds from US6281194A, “Cycloalkyl inhibitors of protein farnesyltransferase” (Warner-Lambert Company, priority 1999, dated 2001) can be followed below.

For assay [1], the system named is ras farnesylation in ras-transformed cells. Nature of the assay: Gel shift assay. It counts as cell-based. To be noted: 18-hour incubation. Here is the method: Twenty-four hours after planting 2×10^6 ras-transformed cells per treatment condition, the farnesylation inhibitor is added at varying concentrations. Following an 18-hour incubation period, cells are lysed in phosphate-buffered saline containing 1% Triton X-100, 0.5% sodium deoxycholate, and 0.1% SDS (sodium dodecyl sulfate), pH 7.4 in the presence of several protease inhibitors (PMSF (phenylmethylsulfonylfluoride), antipain, leupeptin, pepstatin A, and aprotinin all at 1 μg/mL). Ras protein is immunoprecipitated from the supernatants by the addition of 3 μg v-H-ras Ab-2 (Y13-259 antibody from Oncogene Science). After overnight immunoprecipitation, 30 μL of a 50% protein G-Sepharose slurry (Pharmacia) is added followed by 45-minute incubation. Pellets are resuspended in 2× tris-glycine loading buffer (Novex) containing 5% β-mercaptoethanol and then denatured by 5 minutes boiling prior to electrophoresis on 14% Tris-glycine SDS gels. Using Western transfer techniques, proteins are transferred to nitrocellulose membranes followed by blocking in blocking buffer. Upon overnight incubation with primary antibody (pan-ras Ab-2 from Oncogene Science), an antimouse HRP (horse radish peroxidase) conjugate secondary antibody (Amersham) is employed for detection of the ras protein. Blots are developed using ECL(enhanced chemiluminescence) techniques (Amersham).
For orientation: In EMSA bound probe runs differently from free probe, usually more slowly.

Assay [2] has as its target T1, SF9 affinity purified rat farnesyl protein transferase (Rattus norvegicus, UniProt Q02293+Q04631).
T1 construct: made in house; host or cells: Sf9 insect cells (baculovirus system, inferred from b7)
Nature of the assay: PFT inhibitory activity. The class given is biochemical. Here is the method:
The protein:farnesyltransferase (PFT) or farnesyl protein transferase (FPT) inhibitory activity of compounds of the present invention were assayed in HEPES buffer (pH 7.4) containing 5 mM potassium phosphate and 20 μM ZnCl2. The solution also contained 5 mM DTT (dithiothreitol), 5 mM MgCl2 and 0.1% PEG 8000. Assays were performed in 96 well plates (Wallec) and employed solutions composed of varying concentrations of a compound of the present invention in 100% DMSO (dimethylsulfoxide). Upon addition of both substrates, radiolabeled farnesyl pyrophosphate ([1-^3 H], specific activity 15-30 Ci/mmol, final concentration 134 nM) and (biotinyl)-Ahe-Thr-Lys-Cys-Val-Ile-Met ([3aS[3a alpha, 4 beta, 6a alpha]-hexahydro-2-oxo-1H-thieno[3,4-d]imidazole-5-pentanoic acid]-[7-aminoheptanoic acid]-Thr-Lys-Cys-Val-Ile-Met) (Ahe is 7-aminoheptanoic acid, Thr is threonine, Lys is lysine, Cys is cysteine, Val is valine, Ile is isoleucine and Met is methionine) (final concentration 0.2 μM), the enzyme reaction was started by addition of SF9 affinity purified rat farnesyl protein transferase. After incubation at 30° C. for 30 minutes, the reaction was terminated by diluting the reaction 2.5-fold with a stop buffer containing 1.5 M magnesium acetate, 0.2 M H3 PO4, 0.5% BSA (bovine serum albumin), and strepavidin beads (Amersham) at a concentration of 1.3 mg/mL. After allowing the plate to settle for 30 minutes at room temperature, radioactivity was quantitated on a microBeta counter (Model 1450, Wallec). The assay was also carried out without 5 mM potassium phosphate.

[3] abbreviates: HEPES buffer pH 7.4 with 5 mM potassium phosphate, read-out: PFT Inhibitory Activity IC50 (μM) HEPES and 5 mM K3 PO4.
The mark [4] stands for this setting: HEPES buffer pH 7.4 without 5 mM potassium phosphate, read-out: PFT Inhibitory Activity IC50 (μM) HEPES.

Where two headings read alike, the source gives them in different places. Bounds are passed on as bounds.

As usually defined, the IC50 is the concentration that inhibits the measured activity by half.

As to `Cc1ccc(CN(CC(=O)NCC2(c3ccccc3)CCC2)C(=O)[C@H](Cc2c[nH]cn2)NC(=O)N(C)Cc2ccccc2)cc1` [Example 7, (S)-2-(3-Benzyl-3-methyl-ureido)-3-(1H-imidazol-4-yl)-N-(4 methyl-benyl)-N-{[(1-phenyl-cyclobutylmethy)-carbomyl]-methyl}-propionamide], in assay [1], the “Gel Shift (μM) M.E.D. (minimal effective dose to observe inhibition of ras farnesylation)” value was 0.01 µM. For the same compound, the IC50 was 0.003 µM in assay [2] (setting [3]) and 0.014 µM in assay [2] (setting [4]).

`Cc1ccc(CN(CC(=O)NCC2(c3ccccc3)CCC2)C(=O)[C@H](Cc2c[nH]cn2)NC(=O)OCc2ccccc2)cc1` [Example 4, (S)-[1-((4-Methyl-benzyl)-{[(1-phenyl-cyclobutyl-methyl)-carbamoyl]-methyl}-carbamoyl)-2-(1H-imidazol-4-yl)-ethyl]-carbamic Acid Benzyl Ester]: the “Gel Shift (μM) M.E.D. (minimal effective dose to observe inhibition of ras farnesylation)” value in assay [1] turned out to be 0.01 µM. The IC50 in assay [2] (setting [3]) is 0.0054 µM; in assay [2] (setting [4]), 0.26 µM.

For the compound “N-((1S)-1-(1H-4-imidazolylmethyl)-2-oxo-2-(2-oxo-2-[(1-phenylcyclobutyl)methyl]aminoethyl)[(1R)-1-phenylethyl]aminoethyl)carbamate [Example 12]”, the “Gel Shift (μM) M.E.D. (minimal effective dose to observe inhibition of ras farnesylation)” value in assay [1] was not above 0.05 µM. Besides, the IC50 in assay [2] (setting [3]) was 0.34 µM; in assay [2] (setting [4]), 0.002 µM.

For `CCCN(CC(=O)NCC1(c2ccccc2)CCC1)C(=O)[C@H](Cc1cnc[nH]1)NC(=O)OCc1ccccc1` [Example 11], in assay [1], the “Gel Shift (μM) M.E.D. (minimal effective dose to observe inhibition of ras farnesylation)” value is not above 0.05 µM. Besides, the IC50 in assay [2] (setting [3]) was 0.33 µM; in assay [2] (setting [4]) it was less than 0.001 µM.

Take `O=C(CN(Cc1ccc(OCc2ccccc2)cc1)C(=O)[C@H](Cc1c[nH]cn1)NC(=O)OCc1ccccc1)NCC1(c2c(Cl)cccc2Cl)CCC1` [Example 9, (S)-[1-[(4-Benzyloxy-benyl)-({[1-(2,6-dichlorophenyl)-cyclobutylmethyl]-carbamoyl}-methyl)-carbamoyl]-2-(1H-imidazol-4-yl)-ethyl]-carbamic Acid benzyl Ester]: in assay [1], the “Gel Shift (μM) M.E.D. (minimal effective dose to observe inhibition of ras farnesylation)” value was more than 0.2 µM. Besides, the values for the half-maximal inhibitory concentration (IC50) in assay [2] (setting [3]) and in assay [2] (setting [4]) were 0.18 µM and 7 µM, respectively.

Regarding `C/C=C/CN(CC(=O)NCC1(c2ccccc2)CCC1)C(=O)[C@H](Cc1cnc[nH]1)NC(=O)OCc1ccccc1` (stereo in doubt) [Example 10, [(S)-trans]-[1-(But-2-enyl-{[(1-phenyl-cyclobutylmethyl)-carbamoyl]-methyl}-carbamoyl)-2-(3H-imidazol-4-yl)-ethyl]-carbamic Acid benzyl Ester], the “Gel Shift (μM) M.E.D. (minimal effective dose to observe inhibition of ras farnesylation)” value in assay [1] was not above 0.05 µM. For the same compound, the IC50 in assay [2] (setting [3]) was 0.36 µM; in assay [2] (setting [4]), less than 0.001 µM.

As for `CN(Cc1ccccc1)C(=O)N[C@@H](Cc1c[nH]cn1)C(=O)N(CC(=O)NCC1(c2ccccc2)CCC1)Cc1ccc(OCc2ccccc2)cc1` [Example 8, (S)-2-(3-Benzyl-3-methyl-ureido)-N-(4-benzyloxy-benzyl)-3-(1H-imidazol-4-yl)-N-{[(1-phenyl-cyclobutylmethyl)-carbamoyl]-methyl}-propionamide], the “Gel Shift (μM) M.E.D. (minimal effective dose to observe inhibition of ras farnesylation)” value in assay [1] came to 0.01 µM. For the same compound, the IC50 amounted to 0.015 µM in assay [2] (setting [3]) and 0.068 µM in assay [2] (setting [4]).
